The results in this text go back to ChEMBL document CHEMBL1134019, “Structure determination and comparison of BM567, a sulfonylurea, with terbogrel, two compounds with dual action, thromboxane receptor antagonism and thromboxane synthase inhibition” (Bioorg Med Chem Lett, 2001).

Assay [1] concerns the target T1, Thromboxane A2 receptor (Homo sapiens, UniProt P21731).
T1 sequence (P21731 whole entry): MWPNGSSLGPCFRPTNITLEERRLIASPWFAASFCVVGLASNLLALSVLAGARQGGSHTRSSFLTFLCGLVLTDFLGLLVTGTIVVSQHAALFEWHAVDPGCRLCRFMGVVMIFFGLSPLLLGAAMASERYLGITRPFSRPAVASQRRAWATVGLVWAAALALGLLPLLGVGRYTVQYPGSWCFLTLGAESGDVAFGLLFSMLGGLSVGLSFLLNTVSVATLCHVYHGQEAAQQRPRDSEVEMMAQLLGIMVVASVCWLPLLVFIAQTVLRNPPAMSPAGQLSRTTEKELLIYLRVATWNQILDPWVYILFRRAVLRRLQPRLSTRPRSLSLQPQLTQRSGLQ
Kind of assay: In vitro inhibitory concentration of compound against thromboxane A2 receptor.

Assay [2] addresses T2, Thromboxane-A synthase (Homo sapiens) (UniProt P24557).
T2 sequence (whole entry): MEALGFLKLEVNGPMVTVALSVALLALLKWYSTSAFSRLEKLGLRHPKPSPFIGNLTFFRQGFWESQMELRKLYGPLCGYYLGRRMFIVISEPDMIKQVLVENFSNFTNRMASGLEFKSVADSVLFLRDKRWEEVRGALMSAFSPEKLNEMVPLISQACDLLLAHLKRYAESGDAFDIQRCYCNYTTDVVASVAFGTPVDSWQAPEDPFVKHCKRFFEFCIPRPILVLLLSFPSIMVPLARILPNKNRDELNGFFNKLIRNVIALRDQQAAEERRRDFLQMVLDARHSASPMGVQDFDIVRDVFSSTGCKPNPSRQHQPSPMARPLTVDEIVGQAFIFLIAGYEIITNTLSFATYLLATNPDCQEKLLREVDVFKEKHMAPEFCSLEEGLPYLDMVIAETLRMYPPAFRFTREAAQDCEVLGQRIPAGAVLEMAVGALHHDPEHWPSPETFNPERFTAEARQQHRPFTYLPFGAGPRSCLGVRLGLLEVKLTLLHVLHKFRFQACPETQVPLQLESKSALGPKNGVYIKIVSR
As to the kind of experiment: Percent inhibition against thromboxane A2 synthase by the compound at a concentration of 10e-6 M.

`CC(C)(C)/N=C(\NC#N)Nc1cccc(/C(=C/CCCC(=O)O)c2cccnc2)c1`: the IC50 – broadly, the concentration that inhibits the measured activity by half – in assay [1] stood at 11 nM.
Regarding `CCCCCNC(=O)NS(=O)(=O)c1cc([N+](=O)[O-])ccc1NC1CCCCC1`, the inhibition (commonly the drop in the measured response relative to a control, in per cent) in assay [2] was 97.4%.
